Measured values from ChEMBL document CHEMBL1201862, “PubChem BioAssay data set” (2004).
Activity calls are given as the source filed them.

How the values were obtained:
[1] = inhibitors of Vif binding to APOBEC3G peptide, primary screen, biochemical, TR-FRET, GST-Vif 1-94, biotin-A3G peptide, dose response retest (AID 1117319); format: functional;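 note: TR-FRET signal of purified GST-Vif binding a biotinylated A3G peptide; inhibitors lower the FRET signal by blocking Vif and A3G binding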
[2] = tested on: Streptococcus sp. 'group A'; experiment: growth inhibition of control SK(-) GAS strain, dose response, counter-screen for streptokinase expression inhibitor project, luminescence, kanamycin, BacTiterGlo, confirmation (AID 1900); format: functional, organism-based
Streptococcus = experiment: Group A Streptococcus viability loss, dose response, counter-screen for streptokinase expression inhibitor project, luminescence, BacTiterGlo (AID 1915); format: functional, organism-based;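 note: potency for reduction of bacterial viability or growth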
[3] = biological target: T1, Endoribonuclease toxin MazF (Escherichia coli K-12, UniProt P0AE70); experiment: fluorescent RNA oligo signal without MazF, dose response, counter-screen for MazEF activator project, biochemical, fluorescence, single-stranded RNase substrate (AID 588502); format: functional
T1 sequence (P0AE70 whole entry): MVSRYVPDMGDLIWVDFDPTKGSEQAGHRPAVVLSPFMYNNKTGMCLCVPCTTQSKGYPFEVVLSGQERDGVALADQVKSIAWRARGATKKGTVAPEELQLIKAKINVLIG

[4] = biological target: T1, Endoribonuclease toxin MazF; experiment: MazF toxin RNase activators, dose response, biochemical, fluorescence, single-stranded RNA substrate, uHTS hits (AID 588481); format: functional
H9c2 = experiment: cells; format: functional, cell-based; conditions: Rattus norvegicus, H9c2, Myocardium;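 note: confirmatory concentration-response retest of ultra-high-throughput screening hits for modulation of myocardial damage; cell death induced by hydrogen peroxide oxidative stress; compound pretreatment for 60 min then peroxide exposure for 2 h; potency is for protecting the cells against peroxide damage rather than for killing them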
Streptokinase A = biological target: T2, Streptokinase A (Streptococcus pyogenes serotype M1, UniProt P10520); experiment: S. pyogenes streptokinase expression inhibitors, potency, dose response, plasminogen activation absorbance, OD405 (AID 1914); format: functional, Streptococcus pyogenes M1 GAS;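 note: secreted streptokinase activity via plasminogen activation per viability signal from cell pellet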
T2 sequence (P10520 whole entry): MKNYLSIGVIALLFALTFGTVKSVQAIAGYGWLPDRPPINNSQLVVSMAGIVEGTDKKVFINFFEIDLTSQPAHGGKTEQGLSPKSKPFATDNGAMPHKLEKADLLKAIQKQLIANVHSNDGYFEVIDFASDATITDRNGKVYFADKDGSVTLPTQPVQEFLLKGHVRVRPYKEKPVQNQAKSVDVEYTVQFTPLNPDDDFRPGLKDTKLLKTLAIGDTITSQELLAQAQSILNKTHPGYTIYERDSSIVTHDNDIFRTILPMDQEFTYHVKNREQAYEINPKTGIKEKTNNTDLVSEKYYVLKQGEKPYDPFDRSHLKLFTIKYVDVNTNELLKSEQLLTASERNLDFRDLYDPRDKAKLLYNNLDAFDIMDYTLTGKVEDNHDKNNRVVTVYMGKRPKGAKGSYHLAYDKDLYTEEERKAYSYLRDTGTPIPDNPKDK

Ephrin type-A receptor 4 = Ephrin type-A receptor 4 (Mus musculus, UniProt Q03137); experiment: inhibitors of EphA4 binding to KYL peptide, primary screen, biochemical, colorimetric, mouse EphA4 (AID 689); format: functional
Ephrin type-A receptor 4, sequence (Q03137 whole entry): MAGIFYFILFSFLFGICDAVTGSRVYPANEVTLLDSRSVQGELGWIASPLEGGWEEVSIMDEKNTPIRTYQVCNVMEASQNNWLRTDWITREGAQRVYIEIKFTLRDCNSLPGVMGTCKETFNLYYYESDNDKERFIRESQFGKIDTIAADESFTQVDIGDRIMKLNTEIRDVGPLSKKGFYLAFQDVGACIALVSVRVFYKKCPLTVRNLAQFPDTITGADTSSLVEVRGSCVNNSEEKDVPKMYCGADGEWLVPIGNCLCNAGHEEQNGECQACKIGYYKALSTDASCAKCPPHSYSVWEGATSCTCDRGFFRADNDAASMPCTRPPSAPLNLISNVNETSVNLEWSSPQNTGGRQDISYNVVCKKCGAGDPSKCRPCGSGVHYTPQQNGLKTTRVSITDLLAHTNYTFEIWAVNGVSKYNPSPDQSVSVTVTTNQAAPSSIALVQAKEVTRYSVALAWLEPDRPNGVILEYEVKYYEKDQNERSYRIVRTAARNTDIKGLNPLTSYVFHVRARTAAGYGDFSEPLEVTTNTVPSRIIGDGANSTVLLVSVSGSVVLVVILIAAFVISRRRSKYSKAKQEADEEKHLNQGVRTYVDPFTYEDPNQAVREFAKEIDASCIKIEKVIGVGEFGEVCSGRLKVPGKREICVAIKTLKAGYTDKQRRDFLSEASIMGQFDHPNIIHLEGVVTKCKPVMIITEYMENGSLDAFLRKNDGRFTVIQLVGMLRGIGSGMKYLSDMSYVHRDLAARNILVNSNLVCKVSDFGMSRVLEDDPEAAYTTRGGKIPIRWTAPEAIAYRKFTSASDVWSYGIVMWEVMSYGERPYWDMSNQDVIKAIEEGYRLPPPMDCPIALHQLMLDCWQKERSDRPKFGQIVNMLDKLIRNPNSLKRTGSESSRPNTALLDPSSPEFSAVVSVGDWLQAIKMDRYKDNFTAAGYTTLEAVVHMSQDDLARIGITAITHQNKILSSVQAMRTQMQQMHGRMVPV

[5] = A2780 ovarian cancer cell cytotoxicity, dose response, cytotoxicity control, plate reader, dry powder samples (AID 743046); format: functional, cell-based
[6] = NIH:OVCAR-3 ovarian cancer cell cytotoxicity, dose response, PAX8 inhibitor project, plate reader, dry powder samples (AID 743044); format: functional, cell-based
Paired box protein Pax-8 = Paired box protein Pax-8 (Homo sapiens, UniProt Q06710); experiment: inhibitors of PAX8-driven TPO luciferase reporter, dose response, RMG-I cells, cherry-pick (AID 687027); format: functional, cell-based;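 note: luciferase reporter driven by Pax8 target thyroperoxidase promoter measured by SteadyGlo luminescence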
Paired box protein Pax-8, sequence (Q06710 whole entry): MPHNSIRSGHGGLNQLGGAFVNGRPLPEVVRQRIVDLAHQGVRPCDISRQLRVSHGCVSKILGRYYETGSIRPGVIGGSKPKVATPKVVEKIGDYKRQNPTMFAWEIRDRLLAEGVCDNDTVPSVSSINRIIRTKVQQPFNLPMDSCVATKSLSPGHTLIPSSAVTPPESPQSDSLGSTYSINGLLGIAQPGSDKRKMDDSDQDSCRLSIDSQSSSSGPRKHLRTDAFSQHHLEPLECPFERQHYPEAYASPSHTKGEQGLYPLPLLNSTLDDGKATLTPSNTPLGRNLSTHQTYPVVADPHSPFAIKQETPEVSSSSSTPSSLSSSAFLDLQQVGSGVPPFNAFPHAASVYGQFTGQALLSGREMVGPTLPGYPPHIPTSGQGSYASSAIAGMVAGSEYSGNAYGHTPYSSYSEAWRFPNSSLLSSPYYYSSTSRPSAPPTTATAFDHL

[7] = cytotoxicity in OVCAR8 ovarian cancer cells, dose response, PAX8 project, cell-based, plate reader, dry powder samples (AID 743197); format: functional; conditions: OVCAR-8
[8] = inhibitors of non-replicating M. tuberculosis, dose response, luciferase, dry powder (AID 651620); format: functional
[9] = inhibitors of non-replicating M. tuberculosis, dose response, luciferase, dry powder (AID 651619); format: functional
[10] = biological target: NAD-dependent protein deacylase sirtuin-5, mitochondrial (Homo sapiens, UniProt Q9NXA8); experiment: SIRT5 deacylase inhibitors, dose response, biochemical, fluorescence imaging, cherry-pick, set 6 (AID 720597)
NAD-dependent protein deacylase sirtuin-5, mitochondrial, sequence (Q9NXA8 whole entry): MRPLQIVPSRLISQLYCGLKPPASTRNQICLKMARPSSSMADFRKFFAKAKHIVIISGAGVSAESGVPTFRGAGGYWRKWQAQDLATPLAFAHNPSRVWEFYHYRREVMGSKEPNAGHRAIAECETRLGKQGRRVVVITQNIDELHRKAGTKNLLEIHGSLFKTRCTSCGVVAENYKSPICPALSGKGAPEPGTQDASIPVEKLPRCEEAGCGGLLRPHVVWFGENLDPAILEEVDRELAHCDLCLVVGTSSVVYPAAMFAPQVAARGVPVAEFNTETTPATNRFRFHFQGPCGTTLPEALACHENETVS

[11] = Concentration-dependent survival of SW480 colon cancer line, luminescence detection with CellTiter-Glo, half-maximal inhibitory concentration (AID 1117338); format: functional
[12] = cytotoxicity toward HCT116 cells – cell-based, CellTiter-Glo luminescence, IC50, dose response (AID 1117332); format: functional; conditions: HCT-116
[13] = RKO cell viability reduction, dose response, CellTiter-Glo luminescence (AID 1117322); format: functional
[14] = CellTiter-Glo luminescent dose response of DLD-1 viability loss (AID 1117352); format: functional
[15] = HCT116 cell viability decrease, GSK3B pretreatment – CellTiter-Glo, IC50, dose response (AID 1117339); format: functional; conditions: HCT-116
[16] = cytotoxicity toward HT-29 cells – cell-based, CellTiter-Glo luminescence, IC50, dose response (AID 1117330); format: functional
[17] = cytotoxicity toward Colo320 cells – cell-based, CellTiter-Glo luminescence, IC50, dose response (AID 1117334); format: functional; conditions: COLO 320
[18] = SNU-C1 cell viability reduction, dose response, CellTiter-Glo luminescence (AID 1117323); format: functional, cell-based

CC(C(=O)N1CCOCC1)(c1ccccc1)c1ccccc1
IC50 [1]: > 100 µM (active)

CCn1c(O)c(/C=N/N=C/c2ccccc2)c2ccc(C3=NNC(=O)CC3)cc21
EC50 [2]: 6.42 µM (active) | EC50 (Streptococcus): 10.5 µM (active) | EC50 [3]: > 99 µM (inactive) | EC50 [4]: > 99 µM (inactive) | IC50 (H9c2): > 79 µM (inactive) | EC50 (Streptokinase A): > 150 µM (not active) | IC50 (Ephrin type-A receptor 4): > 100 µM (not active)

C[C@H]1CN([C@@H](C)CO)C(=O)Cc2cc(NC(=O)C3CC3)ccc2O[C@@H]1CN(C)Cc1ccc(-c2ccccc2)cc1
AC50 [5]: 21.9 µM (active) | AC50 [6]: 38 µM (active) | AC50 (Paired box protein Pax-8): 6.35 µM (active) | AC50 [7]: > 70 µM (inactive)

Clc1ccc(-c2nnc(SCc3cn(Cc4ccccc4)nn3)o2)cc1
IC90 [8]: 1 µM (active) | IC90 ([8]; Mycobacterium tuberculosis): 2 µM (active) | IC90 [9]: 1 µM (active) | IC90 ([9]; Mycobacterium tuberculosis): 2 µM (active)

C[C@H](CO)N1C[C@H](C)[C@@H](CN(C)C)Oc2ccc(NC(=O)Nc3ccc(F)cc3)cc2CC1=O
AC50 [10]: > 30 µM (inactive)

CC(C)CC#Cc1ccc([C@@H]2[C@@H](CO)N3C(=O)CN(C(=O)c4ccccn4)C[C@H]23)cc1
AC50 [10]: 19.7 µM (active)

CCOC(=O)C=C(C)C=CC[C@@H](C)CCCC(C)C
IC50 [11]: > 20 µM (inactive) | IC50 [12]: > 20 µM (inactive) | IC50 [13]: > 20 µM (inactive) | IC50 [14]: > 20 µM (inactive) | IC50 [15]: > 20 µM (inactive) | IC50 [16]: > 20 µM (inactive) | IC50 [17]: > 20 µM (inactive) | IC50 [18]: > 20 µM (inactive)

O=[N+]([O-])c1cccc(S(=O)(=O)NCCNS(=O)(=O)c2cccc([N+](=O)[O-])c2)c1 [DINSED]
IC50 [11]: > 20 µM (inactive) | IC50 [12]: > 20 µM (inactive) | IC50 [13]: > 20 µM (inactive) | IC50 [14]: > 20 µM (inactive) | IC50 [15]: > 20 µM (inactive) | IC50 [16]: > 20 µM (inactive) | IC50 [17]: > 20 µM (inactive) | IC50 [18]: > 20 µM (inactive)
